Measured values from patent US20040254229A1, “Use of glucose uptake enhancer for reducing apoptosis” (SmithKline Beecham p.l.c. and SmithKline Beecham …, priority 1998, published 2004).

Experiments:
[1] = test system: isolated working hearts from STZ-diabetic rats; assay: Isolated working hearts from STZ-diabetic male Wistar rats: ventricular function, zero-flow ischaemia and re-perfusion; set-up: species or system rat
Experimental: A solution of streptozotocin (STZ commercially available) was prepared in citrate buffer (40 mg/ml).
Induction of experimental diabetes: Male Wistar rats weighing between 300 and 320 g were fasted overnight and made diabetic by a single intravenous injection of STZ, 40 mg/kg body weight. The development of diabetes and its persistence were monitored by serial quantitative measurements of glucose in the urine with reagent strips. On the day of the experiment, the severity of diabetes was assessed by measuring glucose concentrations from blood samples collected at the time of heart excision. Only rats with plasma glucose levels exceeding 20 mM were considered diabetic and included in these experiments.
(§1) Perfusion of isolated hearts: Rats were anaesthetized using thiopental sodium (50 mg/kg body weight intraperitoneally). Hearts from normoglycaemic and one-month STZ-induced diabetic rats, were quickly removed and immersed in ice-cold buffer to produce an immediate cessation of contractility. The aorta was dissected free and then mounted onto a cannula attached to a perfusion apparatus. Retrograde perfusion of the heart was started for 10 min by the Langendorff method and then switched to perfusion using the working-heart technique. […] The perfusate was not recirculated. Preload was held at a pressure of 15 cm H2O and afterload, as well as coronary perfusion pressure, were kept constant at 80 cm H2O.
(§2) Aortic and coronary flows ([…]) were measured by timed collection. Cardiac output ([…]) was derived from the sum of the aortic and coronary flows. Stroke volume (ml/beat) was derived by dividing cardiac output by heart rate.
(§3) Induction of global ischaemia and re-perfusion: Total ischaemia was initiated by clamping the left atrium and the aortic perfusion tubes and reducing coronary flow to zero for 30 minutes. The hearts were then re-perfused at 37° C. in working heart mode and recovery of ventricular function was followed for 30 minutes.
(§4) Data Handling & Analysis: The data are presented as the mean±SEM. Statistical significance of differences was determined using Student's t-test. Differences with p<0.05 were considered to be statistically significant.

[2] = test system: isolated working hearts from male Wistar rats; assay: Isolated working hearts from normal male Wistar rats: ventricular function, zero-flow ischaemia and re-perfusion; set-up: species or system rat
Experimental: Test Systems: Male Wistar rats (Charles River; St Aubin lès Elbeuf, France), with a body weight ranging from 260 to 280 g were housed on a 12h/12h light-dark cycle with access to water and standard rat chow ad libitum. An acclimatisation period of at least one week was allowed prior to experiment.
as §1, §2, §3, §4

[3] = baseline ventricular function, STZ-diabetic male Wistar rats, 1 μM in the perfusate pre-ischaemia, n = 6, mean±SEM
[4] = baseline ventricular function, normal male Wistar rats, 1 μM in the perfusate pre-ischaemia, mean±SEM

## CN(CCOc1ccc(CC2SC(=O)NC2=O)cc1)c1ccccn1 (stereo not drawn) [Compound (I), 5-[4-[2-(N-methyl-N-(2-pyridyl)amino)ethoxy]benzyl]thiazolidine-2,4-dione]
[1]; [3]
  Aortic Flow: 42.3 ± 1.5 mL/min
  Cardiac Output: 54.4 ± 1.7 mL/min
  Coronary Flow: 12.1 ± 0.4 mL/min
  Heart Rate: 225 ± 14 beats/min
  Peak Systolic Pressure: 76 ± 2 mmHg
[1]; diabetic rat hearts
  protective properties in hearts subjected to zero-flow ischaemia in vitro: protective properties of rapid onset
[2]; [4]
  Aortic Flow: 34.0 ± 0.7 mL/min
  Cardiac Output: 51 ± 1 mL/min
  Coronary Flow: 16.6 ± 0.6 mL/min
  Heart Rate: 317 ± 15 beats/min
  Peak Systolic Pressure: 73 ± 1 mmHg
[2]; normal rat hearts
  protective properties in hearts subjected to zero-flow ischaemia in vitro: protective properties of rapid onset
